Assay [1] deals with NQO1-ARE. Kind of assay: NQO1-ARE luciferase reporter assay in HuH7 cells (Nrf2 transcriptional activity). Type of assay: cell-based. The following applies: Homo sapiens, Huh-7, 62.5 nM compound, 18 h, Firefly normalized to Renilla, over DMSO vehicle control. The text has this:
NQO1-ARE Luciferase Reporter Assay.
This assay allows for quantitative assessment of the endogenous activity of the Nrf2 transcription factor in cultured mammalian cells. Expression of Firefly luciferase from NQO1-ARE luciferase reporter plasmid is controlled by binding of Nrf2 to a specific enhancer sequence corresponding to the antioxidant response element (ARE) that was identified in the promoter region of the human NADPH:quinone oxidoreductase 1 (NQO1) gene (Xie et al., 1995). The plasmid was constructed by inserting a sequence:
encompassing the human NQO1-ARE into the pLuc-MCS vector using HindIII/XhoI cloning sites (GenScript Corp., Piscataway, N.J.). The assay is performed in HuH7 cells maintained in DMEM (Invitrogen) supplemented with 10% FBS and 100 U/ml (each) of penicillin and streptomycin. For the assay, cells are plated in 96-well plates at 17,000 cells per well. Twenty four hours later, the cells are co-transfected with 50 ng each of NQO1-ARE reporter plasmid and pRL-TK plasmid using Lipofectamine 2000 transfection reagent (Invitrogen). pRL-TK plasmid constitutively expresses Renilla luciferase and is used as an internal control for normalization of transfection levels. Thirty hours after transfection, the cells are treated with compounds (at concentrations ranging from 0 to 1 μM) for eighteen hours. Firefly and Renilla luciferase activity is assayed by Dual-Glo Luciferase Assay (Promega Corp., Madison, Wis.), the luminescence signal is measured on an L-Max II luminometer (Molecular Devices). Firefly luciferase activity is normalized to the Renilla activity, and fold induction over a vehicle control (DMSO) of normalized Firefly activity is calculated. The fold induction at 62.5 nM concentration is used for comparing relative potencies of compounds to induce Nrf2 transcriptional activity. See Xie et al., 1995, which is incorporated herein by reference.
(In general: Reporter assays use an easily measured gene product as a stand-in for the process of interest.)

Assay [2] relates to IFNγ-induced NO production in RAW264.7. Put plainly: Suppression of IFNγ-induced NO production in RAW264.7 mouse macrophages (Griess reagent, normalized to WST-1 cell viability). Type of assay: cell-based. The note with it: RAW264.7 cells, 2 h pre-treatment with drug (0-200 nM), then IFNγ for 24 h. Put shortly: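 RAW264.7 cells pre-treated 2 h with compound (0-200 nM), then stimulated 24 h with recombinant mouse IFNγ. NO in medium measured by Griess reagent, viability by WST-1; IC50 from suppression of IFNγ-induced NO normalized to viability.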
(The Griess reaction detects nitrite, a stable product of nitric oxide.)

The structures appear in SMILES notation.

Broadly, the fold induction is the signal under treatment as a multiple of the control signal. By IC50 is commonly meant the concentration needed to halve the response being measured. For the compound `C[C@@H]1C(=O)C(C#N)=C[C@]2(C)C3=CC(=O)[C@@H]4[C@@H]5CC(C)(C)CC[C@]5(C(=O)n5ccnc5)CC[C@@]4(C)[C@]3(C)CC[C@@H]12` [TX63522], the fold induction at 0.0625 µM in assay [1] worked out at 4.1. Also, the IC50 in assay [2] stood at 0.4 nM.

The compound `C[C@@H]1C(=O)C(C#N)=C[C@]2(C)C3=CC(=O)[C@@H]4[C@@H]5CC(C)(C)CC[C@]5(NC(=O)C(C)(F)F)CC[C@@]4(C)[C@]3(C)CC[C@@H]12` [TX63682] returned a fold induction at 0.0625 µM in assay [1] of 5.7. Further, the IC50 in assay [2] stood at 1.1 nM.

Turning to `C[C@@H]1C(=O)C(C#N)=C[C@]2(C)C3=CC(=O)[C@@H]4[C@@H]5CC(C)(C)CC[C@]5(CO)CC[C@@]4(C)[C@]3(C)CC[C@@H]12` [TX63545], in assay [1], the fold induction at 0.0625 µM came out at 7.2. Besides, in assay [2], the IC50 came out at 0.7 nM.

On to `C[C@@H]1C(=O)C(C#N)=C[C@]2(C)C3=CC(=O)[C@@H]4[C@@H]5CC(C)(C)CC[C@]5(C(=O)O)CC[C@@]4(C)[C@]3(C)CC[C@@H]12` [TX63520], for which the fold induction at 0.0625 µM in assay [1] was found to be 5.3. In assay [2], the IC50 is 10.1 nM.

Turning to `COC(=O)[C@]12CCC(C)(C)C[C@H]1[C@H]1C(=O)C=C3[C@@]4(C)C=C(C#N)C(=O)[C@@H](C)[C@@H]4CC[C@@]3(C)[C@]1(C)CC2` [TX63435], in assay [1], the fold induction at 0.0625 µM was 7.2. Besides, the IC50 in assay [2] turned out to be 1 nM.

In assay [1], `Cc1nnc([C@]23CCC(C)(C)C[C@H]2[C@H]2C(=O)C=C4[C@@]5(C)C=C(C#N)C(=O)[C@@H](C)[C@@H]5CC[C@@]4(C)[C@]2(C)CC3)o1` [TX63616] had a fold induction at 0.0625 µM of 4.4. Moreover, the IC50 in assay [2] is 0.7 nM.

For `C[C@@H]1C(=O)C(C#N)=C[C@]2(C)C3=CC(=O)[C@@H]4[C@@H]5CC(C)(C)CC[C@]5(C(=O)NCC(F)(F)F)CC[C@@]4(C)[C@]3(C)CC[C@@H]12` [TX63523], in assay [1], the fold induction at 0.0625 µM amounted to 5.6. The IC50 in assay [2] came out at 1 nM.

In assay [1], `COC(=O)[C@]12CCC(C)(C)C[C@H]1[C@H]1C(=O)C[C@@H]3[C@@]4(C)C=C(C#N)C(=O)[C@@H](C)[C@@H]4CC[C@@]3(C)[C@]1(C)CC2` [TX63749] came in with a fold induction at 0.0625 µM of 2.3. Moreover, in assay [2], the IC50 was 3 nM.

`C[C@@H]1C(=O)C(C#N)=C[C@]2(C)C3=CC(=O)[C@]45OC(=O)[C@@]6(CCC(C)(C)C[C@H]64)CC[C@@]5(C)[C@]3(C)CC[C@@H]12` [TX63555] gave a fold induction at 0.0625 µM in assay [1] of 6.1. The concentration for half-maximal inhibition (IC50) in assay [2] was 1.4 nM.
